pKi: −log10 of the molar value.
molecular target: T1, purified ITK (Invitrogen PV3875) (Homo sapiens, UniProt Q08881); experiment: ITK peptide phosphorylation assay (Caliper LabChip or LCMS); type: biochemical; settings: Table 1, Examples 141-279
T1 construct: purchased Invitrogen PV3875
T1 sequence (Q08881 1-620): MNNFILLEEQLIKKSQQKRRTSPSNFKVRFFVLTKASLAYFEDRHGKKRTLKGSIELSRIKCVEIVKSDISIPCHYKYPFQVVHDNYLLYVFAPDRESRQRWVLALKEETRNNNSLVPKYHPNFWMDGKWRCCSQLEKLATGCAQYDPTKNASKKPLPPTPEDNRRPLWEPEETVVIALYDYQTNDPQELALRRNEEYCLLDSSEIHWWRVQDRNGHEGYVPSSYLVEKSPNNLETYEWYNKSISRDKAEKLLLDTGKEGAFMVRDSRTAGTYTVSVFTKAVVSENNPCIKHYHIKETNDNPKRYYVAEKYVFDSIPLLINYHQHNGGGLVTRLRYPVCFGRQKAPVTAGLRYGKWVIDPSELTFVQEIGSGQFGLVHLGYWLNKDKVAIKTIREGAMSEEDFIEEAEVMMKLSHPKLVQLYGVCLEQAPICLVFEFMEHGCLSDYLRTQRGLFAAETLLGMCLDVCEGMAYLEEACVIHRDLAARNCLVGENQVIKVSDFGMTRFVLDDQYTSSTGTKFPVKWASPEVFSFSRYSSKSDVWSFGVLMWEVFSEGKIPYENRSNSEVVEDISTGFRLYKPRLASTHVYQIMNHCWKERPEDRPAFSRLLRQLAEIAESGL
Procedure, shortened: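 Purified human ITK peptide phosphorylation, quenched with EDTA (50 mM final) for Caliper LabChip separation or TCA (5% v/v final) for UPLC-MS/MS MRM quantification. Ki derived via Morrison tight-binding equation, corrected for competitive inhibition using ATP concentration relative to Km,app.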

pKi	Structure (SMILES)
8.22	O=C(Nc1cnn(CC2CCC2)c1)c1n[nH]c2cc(-c3cn[nH]c3)ccc12 [Example 236, N-[1-(cyclobutylmeth-yl)pyrazol-4-yl]-6-(1H-pyrazol-4-yl)-1H-indazole-3-carboxamide]
8.43	O=C(Nc1cnn(CC2COCCO2)c1)c1n[nH]c2cc(-c3cn[nH]c3)ccc12 (stereo not drawn) [Example 237]
8.55	CCC(CC)Cn1cc(NC(=O)c2n[nH]c3cc(-c4cn[nH]c4)ccc23)cn1 [Example 238, N-[1-(2-ethylbutyl)pyrazol-4-yl]-6-(1H-pyrazol-4-yl)-1H-indazole-3-carboxamide]
8.18	O=C(Nc1cnn(CC2CCCO2)c1)c1n[nH]c2cc(-c3cn[nH]c3)ccc12 (stereo not drawn) [Example 239, 6-(1H-pyrazol-4-yl)-N-[1-(tetrahydrofuran-2-ylmethyl)pyrazol-4-yl]-1H-indazole-3-carboxamide]
8.27	O=C(Nc1cnn(CC2CC2)c1)c1n[nH]c2cc(-c3cn[nH]c3)ccc12 [Example 240, N-[1-(cyclopropylmeth-yl)pyrazol-4-yl]-6-(1H-pyrazol-4-yl)-1H-indazole-3-carboxamide]
8.55	O=C(Nc1cnn(CC2CCCOC2)c1)c1n[nH]c2cc(-c3cn[nH]c3)ccc12 (stereo not drawn) [Example 241, 6-(1H-pyrazol-4-yl)-N-[1-(tetrahydropyran-3-ylmethyl)pyrazol-4-yl]-1H-indazole-3-carboxamide]
8.61	O=C(Nc1cnn(CC2CCOCC2)c1)c1n[nH]c2cc(-c3cn[nH]c3)ccc12 [Example 242]
8.61	O=C(Nc1cnn(CC2CCCCC2)c1)c1n[nH]c2cc(-c3cn[nH]c3)ccc12 [Example 243, N-[1-(cyclohexylmeth-yl)pyrazol-4-yl]-6-(1H-pyrazol-4-yl)-1H-indazole-3-carboxamide]
7.72	O=C(Nc1cnn(Cc2ccccc2)c1)c1n[nH]c2cc(-c3cn[nH]c3)cnc12 [Example 245, N-(1-benzylpyrazol-4-yl)-6-(1H-pyrazol-4-yl)-1H-pyrazolo[4,3-b]pyridine-3-carboxamide]
10.13	Cc1cccc(C(CCN(C)C)n2cc(NC(=O)c3n[nH]c4cc(-c5cn[nH]c5)ccc34)cn2)c1 (stereo not drawn) [Example 246, N-[1-[3-(dimethylamino)-1-(m-tolyl)propyl]py-razol-4-yl]-6-(1H-pyrazol-4-yl)-1H-indazole-3-carboxamide]
9.90	CN(C)CCC(c1cccc(Cl)c1)n1cc(NC(=O)c2n[nH]c3cc(-c4cn[nH]c4)ccc23)cn1 (stereo not drawn) [Example 247, N-[1-[1-(3-chlorophenyl)-3-(dimethylami-no)propyl]pyrazol-4-yl]-6-(1H-pyrazol-4-yl)-1H-indazole-3-carboxamide]
9.89	CN(C)CCC(c1cccc(C(F)(F)F)c1)n1cc(NC(=O)c2n[nH]c3cc(-c4cn[nH]c4)ccc23)cn1 (stereo not drawn) [Example 248, N-[1-[3-(dimethylamino)-1-[3-(trifluorometh-yl)phenyl]propyl]py-razol-4-yl]-6-(1H-pyrazol-4-yl)-1H-indazole-3-carboxamide]
10.22	CN(C)CCC(c1cccc(Cl)c1)n1cc(NC(=O)c2n[nH]c3cc(-c4cn[nH]c4)ccc23)cn1 (stereo not drawn) [Example 249, N-[1-[1-(3-chlorophenyl)-3-(dimethylami-no)propyl]pyrazol-4-yl]-6-(1H-pyrazol-4-yl)-1H-indazole-3-carboxamide]
6.99	N#Cc1cccc(Cn2cc(NC(=O)c3n[nH]c4cc(C(F)(F)F)ccc34)cn2)c1 [Example 250, N-[1-[(3-cyanophenyl)meth-yl]pyrazol-4-yl]-6-(trifluoromethyl)-1H-indazole-3-carboxamide]
8.30	O=C(Nc1cnn(CC2CC3CCC2C3)c1)c1n[nH]c2cc(-c3cn[nH]c3)ccc12 (stereo not drawn) [Example 251, N-[1-(norbornan-2-ylmethyl)pyrazol-4-yl]-6-(1H-pyrazol-4-yl)-1H-indazole-3-carboxamide]
8.45	CC(C)CN1CCOC(Cn2cc(NC(=O)c3n[nH]c4cc(-c5cn[nH]c5)ccc34)cn2)C1 (stereo not drawn) [Example 252, N-[1-[(4-isobutylmorpholin-2-yl)methyl]pyrazol-4-yl]-6-(1H-pyrazol-4-yl)-1H-indazole-3-carboxamide]
7.44	CC1(Cn2cc(NC(=O)c3n[nH]c4cc(-c5cn[nH]c5)ccc34)cn2)COC1 [Example 253, N-[1-[(3-methyloxetan-3-yl)methyl]pyrazol-4-yl]-6-(1H-pyrazol-4-yl)-1H-indazole-3-carboxamide]
8.19	CN1CCC(Cn2cc(NC(=O)c3n[nH]c4cc(-c5cn[nH]c5)ccc34)cn2)C1 (stereo not drawn) [Example 254, N-[1-[(1-methylpyrrolidin-3-yl)methyl]pyrazol-4-yl]-6-(1H-pyrazol-4-yl)-1H-indazole-3-carboxamide]

pKi	Structure (SMILES)
7.42	COC(=O)C(c1ccccc1)n1cc(NC(=O)c2n[nH]c3ccccc23)cn1 (stereo not drawn) [Example 255, methyl 2-[4-(1H-indazole-3-carbonylamino)py-razol-1-yl]-2-phenyl-acetate]
6.84	O=C(Nc1cnn(C(CO)c2ccccc2)c1)c1n[nH]c2ccccc12 (stereo not drawn) [Example 256, N-[1-(2-hydroxy-1-phenyl-ethyl)pyrazol-4-yl]-1H-indazole-3-carboxamide]
7.45	O=C(Nc1cnn(C(CO)c2ccccc2)c1)c1n[nH]c2ccccc12 (stereo not drawn) [Example 257, N-[1-(2-hydroxy-1-phenyl-ethyl)pyrazol-4-yl]-1H-indazole-3-carboxamide]
8.25	CN1CCC(Cn2cc(NC(=O)c3n[nH]c4cc(-c5cn[nH]c5)ccc34)cn2)CC1 [Example 258, N-[1-[(1-methyl-4-piperidyl)meth-yl]pyrazol-4-yl]-6-(1H-pyrazol-4-yl)-1H-indazole-3-carboxamide]
8.56	O=C(Nc1cnn(CC2CN(Cc3ccccc3)CCO2)c1)c1n[nH]c2cc(-c3cn[nH]c3)ccc12 (stereo not drawn) [Example 259, N-[1-[(4-benzylmorpholin-2-yl)methyl]pyrazol-4-yl]-6-(1H-pyrazol-4-yl)-1H-indazole-3-carboxamide]
7.92	N#CCn1cc(NC(=O)c2n[nH]c3cc(-c4cn[nH]c4)ccc23)cn1 [Example 260, N-[1-(cyanomethyl)py-razol-4-yl]-6-(1H-pyrazol-4-yl)-1H-indazole-3-carboxamide]
8.32	N#CCCn1cc(NC(=O)c2n[nH]c3cc(-c4cn[nH]c4)ccc23)cn1 [Example 261, N-[1-(2-cyanoethyl)py-razol-4-yl]-6-(1H-pyrazol-4-yl)-1H-indazole-3-carboxamide]
8.33	O=C(Nc1cnn(CC2CNC2)c1)c1n[nH]c2cc(-c3cn[nH]c3)ccc12 [Example 262, N-[1-(azetidin-3-ylmethyl)pyrazol-4-yl]-6-(1H-pyrazol-4-yl)-1H-indazole-3-carboxamide]
8.29	CNCCC(c1ccccc1)n1cc(NC(=O)c2n[nH]c3ccccc23)cn1 (stereo not drawn) [Example 263, N-[1-[3-(methylamino)-1-phenyl-propyl]pyrazol-4-yl]-1H-indazole-3-carboxamide]
7.26	CNCCC(c1ccccc1)n1cc(NC(=O)c2n[nH]c3ccccc23)cn1 (stereo not drawn) [Example 264, N-[1-[3-(methylamino)-1-phenyl-propyl]pyrazol-4-yl]-1H-indazole-3-carboxamide]
7.62	CC(=O)N(C)CCC(c1ccccc1)n1cc(NC(=O)c2n[nH]c3ccccc23)cn1 (stereo not drawn) [Example 265, N-[1-[3-[acetyl(meth-yl)amino]-1-phenyl-propyl]pyrazol-4-yl]-1H-indazole-3-carboxamide]
7.00	CC(=O)N(C)CCC(c1ccccc1)n1cc(NC(=O)c2n[nH]c3ccccc23)cn1 (stereo not drawn) [Example 266, N-[1-[3-[acetyl(methyl)a-mino]-1-phenyl-propyl]pyrazol-4-yl]-1H-indazole-3-carboxamide]
7.11	CN(C)CCC(c1ccccc1)n1cc(NC(=O)c2n[nH]c3ccccc23)cn1 (stereo not drawn) [Example 267, N-[1-[3-(dimethylamino)-1-phenyl-propyl]pyrazol-4-yl]-1H-indazole-3-carboxamide]
8.22	CN(C)CCC(c1ccccc1)n1cc(NC(=O)c2n[nH]c3ccccc23)cn1 (stereo not drawn) [Example 268, N-[1-[3-(dimethylamino)-1-phenyl-propyl]pyrazol-4-yl]-1H-indazole-3-carboxamide]
6.98	CN(CCC(c1ccccc1)n1cc(NC(=O)c2n[nH]c3ccccc23)cn1)CC(F)(F)F (stereo not drawn) [Example 269, N-[1-[3-[methyl(2,2,2-trifluoroethyl)a-mino]-1-phenyl-propyl]pyrazol-4-yl]-1H-indazole-3-carboxamide]
8.05	CN(CCC(c1ccccc1)n1cc(NC(=O)c2n[nH]c3ccccc23)cn1)CC(F)(F)F (stereo not drawn) [Example 270, N-[1-[3-[methyl(2,2,2-trifluoroethyl)a-mino]-1-phenyl-propyl]pyrazol-4-yl]-1H-indazole-3-carboxamide]
8.16	CN(CCC(c1ccccc1)n1cc(NC(=O)c2n[nH]c3ccccc23)cn1)S(C)(=O)=O (stereo not drawn) [Example 271]
7.38	CN(CCC(c1ccccc1)n1cc(NC(=O)c2n[nH]c3ccccc23)cn1)S(C)(=O)=O (stereo not drawn) [Example 272, N-[1-[3-[methyl(methyl-sulfonyl)amino]-1-phenyl-propyl]pyrazol-4-yl]-1H-indazole-3-carboxamide]

Source: patent publication US20140309210A1, “INDAZOLE COMPOUNDS, COMPOSITIONS AND METHODS OF USE THEREOF” (Genentech, Inc., priority 2011, published 2014)
